Assays:
rodent models of NIDDM = assay: Rodent models of NIDDM; type: in vivo
Excerpt: Rodents that are genetically defective in the leptin pathway are commonly used as animal models of non-insulin dependant diabetes mellitus (NIDDM). db/db mice and ZDF rats develop frank diabetes that progresses to include β-cell failure and the accompanying precipitous drop in plasma insulin levels. […] All three rodent models were used to examine the efficacy of oral dosing with compounds of the invention on diabetes, insulin sensitivity, food consumption and body weight gain.
Mice (obtained from Jackson Laboratory), ZDF rats (obtained from Genetic Models Inc.) and fa/fa rats (obtained from either Charles River, or Harlan) are maintained on 12-hour light/dark cycle. Mice (age 28-42 days) are caged in groups of 5-6. Rats (age 7 weeks) are housed individually. All animals are allowed ad libitum access to water and food (Purina 5015 for mice and 5008 for rats). Compounds are administered at the specified doses by oral gavage on the morning of each day of any experiment. Blood samples are obtained 3 hours after dosing from fed animals under anesthesia and collected into heparinized capillary tubes from the tail vein.

[1] = test system: transgenic mice carrying the human apo A-I gene; assay: Transgenic mice carrying the human apo A-I gene; type: in vivo; details: transgenic mouse model
Excerpt: Mice transgenic for the human apolipoprotein A-I gene (obtained from Jackson Laboratory) are used to evaluate PPARγ mediated effects on high density lipoprotein (HDL) cholesterol. The mice are handled as described above for db/db mice, except that they are fed Purina 5001.

db/db mice = assay: db/db mice, oral dosing; type: in vivo, mouse; details: 7 week old db/db mice, 300 mg/kg by daily oral gavage

Cc1cc2c(cc1C1(c3ccc(C(=O)O)cn3)CC1)C(C)(C)CCC2(C)C [LG100268, 6-[1-(3,5,5,8,8-pentamethyl-5,6,7,8-tetrahydronaphthalen-2-yl)cyclopropyl]nicotinic acid]
Blood glucose levels (rodent models of NIDDM): lower blood glucose levels | Thyroid hormone axis (rodent models of NIDDM): suppress the thyroid hormone axis | Triglycerides (rodent models of NIDDM): raise triglycerides | Triglycerides [1]: raises triglycerides

CN(C)C(=N)N=C(N)N [metformin]
Plasma glucose (db/db mice): lowers plasma glucose
